The text below walks through data of PMC12346692, “SUL-150 Limits Vascular Remodeling and Ventricular Failure in Pulmonary Arterial Hypertension” (International Journal of Molecular Sciences, 2025).

One data set relates to pulmonary artery rings. Kind of data set: Ex vivo myography of pulmonary artery rings, acute SUL-150 pre-incubation, phenylephrine-induced vasoconstriction. More on the design: species or system rat. The settings on record: 10^−4 M SUL-150 pre-incubation. How it is done:
The fourth-degree branching intralobar pulmonary arteries were carefully dissected under a Leica S4E stereomicroscope as described before. Arterial ring segments (2 mm length) were mounted in a Mulvany-type wire myograph system (model #610M, Danish Myo Technology, Aarhus, Denmark) using Ø40 µm steel wire. Rings were preserved in myography chambers filled with aerated Krebs buffer (pH 7.4) at 37 °C. After 20 min equilibration, rings were stretched to 1.8 kPa using the DMT Normalization Procedure and allowed to equilibrate for an additional 20 min. Analogue–digital signal conversion was performed using PowerLab 8/30, and a myogram was recorded in PowerLab Chart v 5.3 (AD Instruments, Oxford, UK). To assess the acute effects of SUL-150 on vasoconstriction, arterial rings were pre-constricted with 60 mM KCl and, following washout and stabilization, incubated with vehicle (0.1% DMSO) or SUL-150 (10^−4 M) for 20 min. Next, constriction responses to phenylephrine (phenylephrine, Sigma-Aldrich, St. Louis, MO, USA) were recorded in the dose range of 3 × 10^−9 to 3 × 10^−5 M. To assess the chronic effects of SUL-150 treatment, a similar protocol was followed, leaving out the preincubation with vehicle or SUL-150. Isometric responses were calculated as % of maximal KCl-induced constriction, and dose–response curves were recorded to determine the efficacy (Emax) and potency (EC50) of phenylephrine to induce vasoconstriction.

Data set [1] concerns PAH rats. Kind of data set: Histochemistry: pulmonary artery and vessel remodeling, cardiomyocyte hypertrophy, cardiac fibrosis. The settings on record: ~6 mg·kg^−1·day^−1 i.p. minipump, 28 days. The format is in vivo, rat. How it is done:
Cross-sectional cardiomyocyte area was determined for approximately 400 cardiomyocytes/sample (range 182–768) using Fiji 2.1.0/1.53c in binary mode with the following particle analyzer settings: circularity 0.25–1.00 and pixel area 300–1000 px^2.
Cardiac fibrosis was measured after picrosirius staining and counterstaining with Weigert’s hematoxylin (both Sigma-Aldrich, St. Louis, MO, USA) following the manufacturer’s instructions. Samples were imaged on a NanoZoomer digital slide scanner (Hammamatsu Photonics, Shizuoka, Japan) at 40× magnification. Interstitial fibrosis (i.e., non-perivascular fibrosis) was quantified using Aperio ImageScope (Leica Biosystems, Nussloch, Germany). Morphology of the intra-acinar pulmonary vessels was assessed after Verhoeff-Von Gieson staining (Sigma-Aldrich, St. Louis, MO, USA). Samples were imaged on a Leica DM2000 microscope at 63× magnification using Leica Image Acquisition software version 4.13 (Leica, Wetzlar, Germany). Pulmonary vessel remodeling was quantified as described previously.

For data set [2], the system named is PAH rats. Description: In-life data (body weight, discomfort, mortality) during chronic SUL-150 administration. The format is in vivo, rat. As to conditions: ~6 mg·kg^−1·day^−1 i.p. minipump, 28 days. As to the method: (§1) The administration of vehicle and SUL-150 started 7 days post-monocrotaline injection and was performed by the i.p. implantation of osmotic minipumps (Alzet model #2004, Durect Corp., Cupertino, CA, USA) at the time of aortocaval shunt placement. The Lynch coil method was used to circumvent compatibility issues with the osmotic minipump reservoir as described previously. Vehicle (dimethyl sulfoxide (DMSO) or SUL-150 ((R)-(6-hydroxy-2,5,7,8-tetramethylchroman-2-yl)(piperazin-1-yl)methanone, 0.9 M in DMSO, Sulfateq BV, Groningen, The Netherlands) was administered at a flow rate of 0.25 µL·h^−1, accumulating to an approximate dose of 6 mg·kg^−1·day^−1 SUL-150 in a 300 g rat. Animals were weighed, watched for dyspnea, cyanosis, and oedema, and sacrificed preterm when a 15% weight loss or debilitating dyspnea occurred.
Three rats died during the study without a clear cause at necropsy and were excluded (sham control (n = 1) and vehicle-treated (n = 2) rats). At sacrifice, 7 rats were excluded from the study because of procedural motives: in two rats (vehicle (n = 1) and SUL-150-treated (n = 1) rats), adequate AC shunt could not be confirmed. In two other rats (both SUL-150-treated rats), the osmotic pumps were blocked by adipose deposits, limiting their function. Three rats died during cardiac function assessment (sham control (n = 2) and SUL-150 treated (n = 1) rats). Twenty rats were included in the study (sham control (n = 7), vehicle-treated (n = 7), and SUL-150-treated (n = 6) rats.

Data set [3] in a line: SUL-150 levels in plasma, lung and right ventricle (LC-MS/MS). The format is in vivo, rat. The settings on record: for concentration at 4 weeks / concentration at 28 days: rat. As to the method: as §1
Measurement of SUL-150 levels in plasma and tissue homogenates was performed by liquid chromatography and mass spectrometry. Plasma or tissue homogenates were supplemented with acetonitrile and sonicated, followed by centrifugation at 14,000× g to liberate SUL-150 from the samples and pellet protein precipitates. Tissue samples were subjected to additional solid-phase extraction using an SPEStrata C-18 cartridge (100 mg, 55 µm, 70 Å, Phenomenex, Torrance, CA, USA), prepared with 1 mL methanol followed by 1 mL water. Analytes were washed by methanol (10%) and eluted in acetonitrile/methanol (3:7 v/v). Eluate was concentrated, and water (20%) was added. Analyte recovery was >95% for plasma samples and >70% for tissue. Liquid chromatography of the samples was performed on a 1260 Infinity HPLC device (Agilent Tech., Santa Clara, CA, USA) using a ZORBAX Eclipse AAA column (3.0 × 150 mm, particle size 3.5 µm) in a reversed-phase setup and a flow rate of 0.5 mL·min^−1 with gradient elution. Solvents consisted of methanol (6%)/acetonitrile (4%) acetate and methanol (54%)/acetonitrile (36%) in water with 0.1% ammonium for solvents A and B, respectively. MS/MS detection was performed on a QQQ 6460 mass spectrometer (Agilent Tech., Santa Clara, CA, USA). Detection was set for a quantifier ion (205.1, CE 25 V) and qualifier ion (190.1, CE 40 V). Gas temperature for MS was set to 300 °C and gas flow was set to 6 L·min^−1. Quantification of the samples was performed using an external standard for calibration. LOD and LOQ were 5 pg·mL^−1 and 17 pg·mL^−1, respectively.

Setting [4] is: individual PAH rats at sacrifice, ~6 mg·kg^−1·day^−1 i.p. minipump.
The mark [5] stands for this setting: plasma, ip, 6 mg·kg^−1·day^−1, mean of PAH rats at sacrifice, ~6 mg·kg^−1·day^−1 i.p. minipump, read-out: mean concentration of SUL-150 in blood plasma.

Several values for one entry are separate records, joined by “and”; a condition that tells them apart may be missing. Equal values may be shown once. Read-outs that look alike come from different tables or passages of the source. Marks after values point to notes of the source that are not given here.

As for `Cc1c(C)c2c(c(C)c1O)CC[C@](C)(C(=O)N1CCNCC1)O2` [SUL-150, (R)-(6-hydroxy-2,5,7,8-tetramethylchroman-2-yl)(piperazin-1-yl)methanone], the “Emax of phenylephrine-induced vasoconstriction after SUL-150 pre-incubation” value in the data set with pulmonary artery rings (pulmonary artery rings of PAH rats (day 21 post-MCT)) is recorded as 11.03 % of max. Besides, the “Emax of phenylephrine-induced vasoconstriction after SUL-150 pre-incubation” value in the data set on pulmonary artery rings (pulmonary artery rings of sham rats, % of maximal KCl-induced constriction) is listed as 15.6 % of max. In addition, in the data set on PAH rats [1], the “cardiomyocyte cross-sectional area (right ventricle)” value was determined as 246.1 ± 39.4 µm^2; the cross-sectional vascular area is given as 888.2 ± 146.7 µm^2; the “interstitial fibrosis in the cardiac tissue” value is 9.3 % of tissue area; the “intra-acinar pulmonary vessels, cross-sectional lumen area” value is reported as 365.7 ± 101.1 µm^2. Besides, in the data set with PAH rats [1], the “intra-acinar vessel occlusion score” value turned out to be 39.0 ± 7.4%, the “pulmonary artery wall thickness” value came out at 57.6 ± 13.0 µm and the “wall–lumen ratio” value turned out to be 0.42 ± 0.12 µmwall·µmlumen^−1. The “percentage of non-perfusable vessels” value in the data set with PAH rats [1] (vessels with a luminal area < 40 µm^2) came out at 4.45 ± 2.62%. For the same compound, in the data set with PAH rats [2], the Dyspnea frequency is recorded as 33.3 % of rats; the Edema frequency was 0 % of rats and 0 ^a,b % of rats; the “End weight (day 32–33)” value is reported as 319.3 ± 12.0 ^a g; the “Mortality (%)” value is listed as 0 (0%) ^a,b. Also, in the data set on PAH rats [2], the “number of rats with dyspnea” value was 2 n and the survival rate is 100%. For the same compound, in data set [3] (setting [4]), the “SUL-150 concentration, Lung Tissue” value is 35.56 pg/mg and 10.21 pg/mg and 14.26 pg/mg and 25.74 pg/mg and 26.09 pg/mg and 53.94 pg/mg; the “SUL-150 concentration, Plasma” value was 93.16 ng/mL and 3.31 ng/mL and 18.36 ng/mL and 4.42 ng/mL and 18.81 ng/mL and 43.90 ng/mL; the “SUL-150 concentration, Right Ventricle” value was 13.49 pg/mg and 29.91 pg/mg and 23.67 pg/mg and 16.80 pg/mg and 21.76 pg/mg and 143.68 pg/mg. In addition, the concentration at 4 weeks in data set [3] (lung, ip, 6 mg·kg^−1·day^−1, mean of PAH rats at sacrifice, ~6 mg·kg^−1·day^−1 i.p. minipump, read-out: mean concentration of SUL-150 in lung) came to 27.6 ± 15.8 ng/g. Moreover, the concentration at 28 days in data set [3] (plasma, intraperitoneal, 6 mg·kg^−1·day^−1, range over PAH rats at sacrifice, read-out: plasma level of SUL-150, range) was 3.3 to 93.2 ng/mL. In addition, in data set [3] (setting [5]), the concentration at 4 weeks is 30.3 ± 34.1 ng/mL and the concentration at 28 days was 30.3 ng/mL. Moreover, the concentration at 4 weeks in data set [3] (right ventricle, ip, 6 mg·kg^−1·day^−1, mean of PAH rats at sacrifice, ~6 mg·kg^−1·day^−1 i.p. minipump, read-out: mean concentration of SUL-150 in right ventricle) worked out at 41.5 ± 50.4 ng/g.
